Experimental data published in patent US20240269298A1, “PHOSPHONYL DERIVATIVE, AND COMPOSITION AND PHARMACEUTICAL APPLICATION THEREOF” (XIZANG HAISCO PHARMACEUTICAL CO., LTD., priority 2021, published 2024).
pIC50: −log10 of the molar value. Where two headings read alike, the source gives them in different places.

How the values were obtained:
[1] = system: NCI-H1975 (EGFR-L858R-T790M) cells; experiment: Inhibitory activity on proliferation of NCI-H1975 (EGFR-L858R-T790M) cells (CTG, 72 h); format: cell-based; settings: Homo sapiens
In short: (§1)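 Cells plated at 1000/well (NCI-H1975, RPMI1640+10% FBS) or 3000/well (A431, DMEM+10% FBS), dosed next day with compounds (0.1% DMSO final) for 72 h at 37 °C, 5% CO2. Viability by CTG luminescence, normalised to vehicle control; IC50 from nonlinear-regression dose-survival curves.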

[2] = system: A431 (EGFR-WT) cells; experiment: Inhibitory activity on proliferation of A431 (EGFR-WT) cells (CTG, 72 h); format: cell-based; settings: Homo sapiens, A-431
In short: as §1

[3] = read-out: IC50 (value in brackets)

SMILES | pIC50 ([1]; read-out: IC50 (class symbol)) | pIC50 [1, 3] | pIC50 [2]
COc1cc(N2CCN(CC3CCN(c4ccc5c(c4)C(=O)N(C4CCC(=O)NC4=O)C5=O)CC3)CC2)c(-c2cnn(C)c2)cc1Nc1ncc(Br)c(Nc2ccc(C3CC3)cc2P(C)(C)=O)n1 (stereo not drawn) [Compound 125, 5-(4-((4-(4-((5-bromo-4-((4-cyclopropyl-2-(dimethylphosphoryl)phenyl)amino)pyrimidin-2-yl)amino)-5-methoxy-2-(1-methyl-1H-pyrazol-4-yl)phenyl)piperazin-1-yl)methyl)piperidin-1-yl)-2-(2,6-dioxopiperidin-3-yl)isoindoline-1,3-dione] | > 7.00 | 7.64 | ≤ 5.00
COc1cc(N2CCC(CN3CCN(c4ccc5c(c4)C(=O)N([C@H]4CCC(=O)NC4=O)C5=O)CC3)CC2)c(-c2cnn(C)c2)cc1Nc1ncc(Br)c(Nc2ccc(C3CC3)cc2P(C)(C)=O)n1 [Compound 170] | > 7.00 | 7.33 | ≤ 5.00
COc1cc(N2CCC3(CCN(c4ccc5c(c4)C(=O)N(C4CCC(=O)NC4=O)C5=O)CC3)CC2)c(-c2cnn(C)c2)cc1Nc1ncc(Br)c(Nc2ccccc2P(C)(C)=O)n1 (stereo not drawn) [Compound 164, 5-(9-(4-((5-bromo-4-((2-(dimethylphosphoryl)phenyl)amino)pyrimidin-2-yl)amino)-5-methoxy-2-(1-methyl-1H-pyrazol-4-yl)phenyl)-3,9-diazaspiro[5.5]undecan-3-yl)-2-(2,6-dioxopiperidin-3-yl)isoindoline-1,3-dione] | 6.30 to 7.00 | 6.96 | ≤ 5.00
COc1cc(N2CCC(C(=O)N3CCN(c4ccc5c(c4)C(=O)N(C4CCC(=O)NC4=O)C5=O)CC3)CC2)c(-c2cnn(C)c2)cc1Nc1ncc(Br)c(Nc2ccc(C3CC3)cc2P(C)(C)=O)n1 (stereo not drawn) [Compound 145, 5-(4-(1-(4-((5-bromo-4-((4-cyclopropyl-2-(dimethylphosphoryl)phenyl)amino)pyrimidin-2-yl)amino)-5-methoxy-2-(1-methyl-1H-pyrazol-4-yl)phenyl)piperidine-4-carbonyl)piperazin-1-yl)-2-(2,6-dioxopiperidin-3-yl)isoindoline-1,3-dione] | > 7.00 | 7.16 | ≤ 5.00
COc1cc(N2CCC3(CCN(c4ccc5c(c4)C(=O)N(C4CCC(=O)NC4=O)C5=O)CC3)CC2)c(-c2cnn(C)c2)cc1Nc1ncc(Br)c(Nc2ccc(-c3ccccc3)cc2P(C)(C)=O)n1 (stereo not drawn) [Compound 79, 5-(9-(4-((5-bromo-4-((3-(dimethylphosphoryl)-[1,1′-biphenyl]-4-yl)amino)pyrimidin-2-yl)amino)-5-methoxy-2-(1-methyl-1H-pyrazol-4-yl)phenyl)-3,9-diazaspiro[5.5]undecan-3-yl)-2-(2,6-dioxopiperidin-3-yl)isoindoline-1,3-dione] | 6.30 to 7.00 | 6.50 | ≤ 5.00
COc1cc(N2CCC(CN3CC4CN(c5ccc6c(c5)C(=O)N(C5CCC(=O)NC5=O)C6=O)CC4C3)CC2)c(-c2cnn(C)c2)cc1Nc1ncc(Br)c(Nc2ccc(-c3ccccc3)cc2P(C)(C)=O)n1 (stereo not drawn) [Compound 78, 5-(5-((1-(4-((5-bromo-4-((3-(dimethylphosphoryl)-[1,1′-biphenyl]-4-yl)amino)pyrimidin-2-yl)amino)-5-methoxy-2-(1-methyl-1H-pyrazol-4-yl)phenyl)piperidin-4-yl)methyl)hexahydropyrrolo[3,4-c]pyrrol-2(1H)-yl)-2-(2,6-dioxopiperidin-3-yl)isoindoline-1,3-dione] | > 7.00 | 7.29 | ≤ 5.00
COc1cc(N2CCC(CN3CCN(c4ccc5c(c4)C(=O)N([C@H]4CCC(=O)NC4=O)C5=O)CC3)CC2)c(-c2cnn(C)c2)cc1Nc1ncc(Cl)c(Nc2ccc(C3CC3)cc2P(C)(C)=O)n1 [Compound 172] | > 7.00 | 7.31 | ≤ 5.00
COc1cc(N2CCC(N3CCC(CN4CCN(c5ccc6c(c5)C(=O)N(C5CCC(=O)NC5=O)C6=O)CC4)CC3)CC2)c(C2CC2)cc1Nc1ncc(Br)c(Nc2ccc3nccnc3c2P(C)(C)=O)n1 (stereo not drawn) [Compound 24, 5-(4-((1′-(4-((5-bromo-4-((5-(dimethylphosphoryl)quinoxalin-6-yl)amino)pyrimidin-2-yl)amino)-2-cyclopropyl-5-methoxyphenyl)-[1,4′-bipiperidin]-4-yl)methyl)piperazin-1-yl)-2-(2,6-dioxopiperidin-3-yl)isoindoline-1,3-dione] | 6.30 to 7.00 | 6.79 | ≤ 5.00
COc1cc(N2CCN(C3CCN(CC4CCN(c5cc6c(cc5F)C(=O)N(C5CCC(=O)NC5=O)C6=O)CC4)CC3)CC2)c(-c2cnn(C)c2)cc1Nc1ncc(Br)c(Nc2ccc(-c3ccccc3)cc2P(C)(C)=O)n1 (stereo not drawn) [Compound 46, 5-(4-((4-(4-(4-((5-bromo-4-((3-(dimethylphosphoryl)-[1,1′-biphenyl]-4-yl)amino)pyrimidin-2-yl)amino)-5-methoxy-2-(1-methyl-1H-pyrazol-4-yl)phenyl)piperazin-1-yl)piperidin-1-yl)methyl)piperidin-1-yl)-2-(2,6-dioxopiperidin-3-yl)-6-fluoroisoindoline-1,3-dione] | > 7.00 | 7.15 | ≤ 5.00
COc1cc(N2CCC(N3CCN(CC4(F)CCN(c5ccc6c(c5)C(=O)N(C5CCC(=O)NC5=O)C6=O)CC4)CC3)CC2)c(-c2cnn(C)c2)cc1Nc1ncc(Br)c(Nc2ccc(-c3ccccc3)cc2P(C)(C)=O)n1 (stereo not drawn) [Trifluoroacetate of compound 86, 5-(4-((4-(1-(4-((5-bromo-4-((3-(dimethylphosphoryl)-[1,1′-biphenyl]-4-yl)amino)pyrimidin-2-yl)amino)-5-methoxy-2-(1-methyl-1H-pyrazol-4-yl)phenyl)piperidin-4-yl)piperazin-1-yl)methyl)-4-fluoropiperidin-1-yl)-2-(2,6-dioxopiperidin-3-yl)isoindoline-1,3-dione] | > 7.00 | 7.11 | ≤ 5.00
COc1cc(N2CCC(C(=O)N3CCN(c4ccc5c(c4)C(=O)N(C4CCC(=O)NC4=O)C5=O)CC3)CC2)c(-c2cnn(C)c2)cc1Nc1ncc(Cl)c(Nc2ccc(C3CC3)cc2P(C)(C)=O)n1 (stereo not drawn) [Compound 143, 5-(4-(1-(4-((5-chloro-4-((4-cyclopropyl-2-(dimethylphosphoryl)phenyl)amino)pyrimidin-2-yl)amino)-5-methoxy-2-(1-methyl-1H-pyrazol-4-yl)phenyl)piperidine-4-carbonyl)piperazin-1-yl)-2-(2,6-dioxopiperidin-3-yl)isoindoline-1,3-dione] | 6.30 to 7.00 | 6.96 | ≤ 5.00
COc1cc(N2CCC(C3CCN(CC4CCN(c5ccc6c(c5)C(=O)N(C5CCC(=O)NC5=O)C6=O)CC4)CC3)CC2)c(-c2cnn(C)c2)cc1Nc1ncc(Cl)c(Nc2ccc(-c3ccccc3)cc2P(C)(C)=O)n1 (stereo not drawn) [Compound 41, 5-(4-((1′-(4-((5-chloro-4-((3-(dimethylphosphoryl)-[1,1′-biphenyl]-4-yl)amino)pyrimidin-2-yl)amino)-5-methoxy-2-(1-methyl-1H-pyrazol-4-yl)phenyl)-[4,4′-bipiperidin]-1-yl)methyl)piperidin-1-yl)-2-(2,6-dioxopiperidin-3-yl)isoindoline-1,3-dione] | 6.30 to 7.00 | 6.45 | ≤ 5.00
COc1cc(N2CCC(CN3CCN(c4ccc5c(c4)CN(C4CCC(=O)NC4=O)C5=O)CC3)CC2)c(-c2cnn(C)c2)cc1Nc1ncc(Cl)c(Nc2ccc(-c3ccccc3)cc2P(C)(C)=O)n1 (stereo not drawn) [Compound 105, 3-(5-(4-((1-(4-((5-chloro-4-((3-(dimethylphosphoryl)-[1,1′-biphenyl]-4-yl)amino)pyrimidin-2-yl)amino)-5-methoxy-2-(1-methyl-1H-pyrazol-4-yl)phenyl)piperidin-4-yl)methyl)piperazin-1-yl)-1-oxoisoindolin-2-yl)piperidine-2,6-dione] | > 7.00 | 7.24 | ≤ 5.00
COc1cc(N2CCN(C[C@H]3CCN(c4ccc5c(c4)C(=O)N(C4CCC(=O)NC4=O)C5=O)C3)CC2)c(-c2cnn(C)c2)cc1Nc1ncc(Cl)c(Nc2ccc(C3CC3)cc2P(C)(C)=O)n1 (stereo partly drawn) [Compound 119, 5-((R)-3-((4-(4-((5-chloro-4-((4-cyclopropyl-2-(dimethylphosphoryl)phenyl)amino)pyrimidin-2-yl)amino)-5-methoxy-2-(1-methyl-1H-pyrazol-4-yl)phenyl)piperazin-1-yl)methyl)pyrrolidin-1-yl)-2-(2,6-dioxopiperidin-3-yl)isoindoline-1,3-dione] | > 7.00 | 7.54 | ≤ 5.00
CCn1cc(-c2cc(Nc3ncc(Cl)c(Nc4ccc(-c5ccccc5)cc4P(C)(C)=O)n3)c(OC)cc2N2CCC(CN3CCN(c4ccc5c(c4)C(=O)N(C4CCC(=O)NC4=O)C5=O)CC3)CC2)cn1 (stereo not drawn) [Compound 110, 5-(4-((1-(4-((5-chloro-4-((3-(dimethylphosphoryl)-[1,1′-biphenyl]-4-yl)amino)pyrimidin-2-yl)amino)-2-(1-ethyl-1H-pyrazol-4-yl)-5-methoxyphenyl)piperidin-4-yl)methyl)piperazin-1-yl)-2-(2,6-dioxopiperidin-3-yl)isoindoline-1,3-dione] | 6.30 to 7.00 | 6.63 | ≤ 5.00
